Assay results reported in patent publication US20120058948A1, “Collagen peptides as immune modulators” (priority 2006, published 2012).
“Also recorded” adds a separate entry of the source. Square brackets hold non-standard residues; d marks the D form. Ends that are not written are not given here. Hyp = O=C(O)[C@@H]1C[C@@H](O)CN1

Tested on: human peripheral blood monocytes (HPBMs) activated with LPS
Test: LPS-induced IL-1β production (ELISA) from activated HPBMs incubated with LPS and peptide
Type: cell-based
Details: for effect on LPS-induced IL-1β production from HPBMs: LPS 3.3×10^−7 M plus peptide 10^−7, 10^−8 or 10^−9 M, compared with LPS alone, FIG. 3; for effect on LPS-induced IL-1β production at all concentrations studied: all peptide concentrations studied (10^−7 to 10^−9 M), FIGS. 3B-D
Description: Samples (10 mg each) of peptide p1 (Lot #10055791, Genemed Synthesis Inc., San Francisco, Calif.), p2 (Lot #10059702, Genemed Synthesis Inc.) and p3 (Lot #10059701, Genemed Synthesis Inc.) were obtained with >98% purity. Each peptide was diluted with phosphate buffered saline (PBS, […], pH 7.2, 20012-043, Invitrogen Corp., Carlsbad, Calif.) yielding solutions of 10 mg/mL. The peptide solutions were incubated at 4° C. for 24 hours, then stored at −80° C. until required. Glucagon (G2044, Sigma-Aldrich, St. Louis, Mo.) was stored, defrosted and treated in an identical manner to p1, p2 and p3.
Human peripheral blood monocytes were isolated from whole blood supplied by a healthy […] as follows. A 45 mL sample was drawn using 3.2% sodium citrate vacuum tubes. Whole blood was then diluted with a 2.5 mM PBS solution (0.1M, […], Sterile, S02131, Teknova Inc., Hollister, Calif.) to form a solution having a 1:2 ratio of blood:PBS solution. Red blood cells were subsequently removed by density gradient separation using a 1:1 ratio of Histopaque-1077 (Sigma-Aldrich) and centrifuged for 30 minutes at 400×g at 25° C. The plasma layer was removed by aspiration, and the buffy layer, comprising lymphocytes, monocytes and platelets, was collected into two 50 mL conical tubes. To remove the excess histopaque, platelets and plasma, the cells were centrifuged at 250×g for an additional 10 minutes at 4° C. The supernatant was removed and the cells resuspended in 2.5 mM PBS sodium citrate and centrifuged again. The platelet-enriched supernatant was removed after the second wash, leaving a cell pellet in each of the two tubes.
The remainder of the monocyte isolation was carried out using a MS 130-041-201 column (MACS, Miltenyi Biotec, Bergisch Gladbach, Germany) and Human Monocyte Isolation Kit II (MACS, Miltenyi Biotec) as outlined by the manufacturer. The column was washed with 1 mL of 1% heat inactivated fetal bovine serum (1% HI-FBS, USA origin, sterile-filtered, cell culture tested, hybridoma tested, F2442 Sigma-Aldrich) in a PBS sodium citrate solution. The cell pellets were combined into one tube. The cell solution was centrifuged at 300×g at 4° C. and the supematant removed before adding 30 microliters of 1% HI-FBS, 20 microliters FCR blocking agent and 20 microliters monocyte biotin-antibody cocktail per 10^7 cells to the pellet. The tube was lightly agitated then chilled for 10 minutes at 4° C. Anti-biotin microbeads (40 microliters) and 30 microliters of additional 1% HI-FBS per 10^7 cells were added to each tube. The tube was vortexed for three to five seconds to mix, then set to chill at 4° C. for another 15 minutes.
After the incubation at 4° C., 2 mL of 1% HI-FBS were added, and the sample was centrifuged for 10 minutes at 300×g at 25° C. to remove excess antibodies and beads. The supernatant was removed and the pellet carefully re-suspended in 500 microliters of 1% HI-FBS. This cell solution was added to the column, and no further fluid was added until the flow of solution through the column had stopped. The tube and column were washed three times with 500 microliters of 1% HI-FBS, and the fluid was collected for cell culture. Subsequent fluorescence activated cell sorter (FACS) analysis of tissue culture samples confirmed a monocyte purity of >82%. Monocytes were seeded at 5×10^5 per well and cultured in 10% FBS RPMI 1640 and allowed to incubate at 37° C. in 5% CO2.
Because the peptides under investigation can spontaneously form triple-helical structures in solution, the peptides were heated to 90° C. for two minutes prior to introducing them to HPBM cultures to ensure that unfolded peptides, corresponding to the collagen-degradation products, were used for the experiments. The peptide solutions were then diluted with RPMI 1640 10% FBS at 37° C., yielding a final concentration of 1 microgram/mL. Serial dilutions of the peptide samples were performed to obtain the solutions at the desired concentration. […]

Sequence	effect on LPS-induced IL-1β production from HPBMs	effect on LPS-induced IL-1β production at a relatively high concentration of peptide (LPS 3.3×10^−7 M, relatively high peptide concentration (close to that in synovial fluid of RA patients), FIG. 3A/3D)	effect on LPS-induced IL-1β production at all concentrations studied (LPS 3.3×10^−7 M)	time at which elevated IL-1β levels began, peptide p1 relative to peptide p3 (LPS 3.3×10^−7 M plus peptide, sampling every four hours for 28 hours)
HSQGTIFTSDYSKYLDSRRAQDFVQWLMNT [peptide p0, reference compound]	no significant effect	not statistically significant		
POGPOGPOGAOGLRGGAGPAGPOGPOGPOG (P[Hyp]GP[Hyp]GP[Hyp]GA[Hyp]GLRGGAGPAGP[Hyp]GP[Hyp]GP[Hyp]G; ends and bridges not checked) [peptide p3, models a relatively imino-poor but relatively rigid collagen segment near a gelatinase scissile bond, flanked by POG triplets]	additive effect; also recorded: greatest effect; also recorded: augmented		augment	
POGPOGPOGPOGPOGPOGPOGPOGPOGPOG [peptide p1]	additive effect; also recorded: augmented		augment	later time
